Laboratory results as given in PubChem BioAssay (NCI).
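1) Cells in 96-well plates. 2) Compound, 48 h, 5 concentrations. 3) Linear interpolation between surrounding doses. 4) Unreached endpoint = highest concentration. At the TGI there is no net growth.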

Legend:
Experiment in all cases: DTP human tumour cell line panel, 48 h
A498 renal = tested on: A498 renal
PC-3 prostate = tested on: PC-3 prostate
LOX IMVI melanoma = tested on: LOX IMVI melanoma
ACHN renal = tested on: ACHN renal
SK-MEL-2 melanoma = tested on: SK-MEL-2 melanoma
SNB-75 CNS = tested on: SNB-75 CNS
SN12C renal = tested on: SN12C renal
NCI-H226 lung = tested on: NCI-H226 lung
HS 578T breast = tested on: HS 578T breast
HCT-15 colon = tested on: HCT-15 colon
BT-549 breast = tested on: BT-549 breast
HT29 colon = tested on: HT29 colon
NCI-H23 lung = tested on: NCI-H23 lung
SF-295 CNS = tested on: SF-295 CNS
RXF 393 renal = tested on: RXF 393 renal
786-0 renal = tested on: 786-0 renal
KM12 colon = tested on: KM12 colon
MALME-3M melanoma = tested on: MALME-3M melanoma
NCI/ADR-RES ovarian = tested on: NCI/ADR-RES ovarian
T-47D breast = tested on: T-47D breast
OVCAR-5 ovarian = tested on: OVCAR-5 ovarian
OVCAR-3 ovarian = tested on: OVCAR-3 ovarian
SF-539 CNS = tested on: SF-539 CNS
IGROV1 ovarian = tested on: IGROV1 ovarian
OVCAR-8 ovarian = tested on: OVCAR-8 ovarian
UO-31 renal = tested on: UO-31 renal
CCRF-CEM leukemia = tested on: CCRF-CEM leukemia
MCF7 breast = tested on: MCF7 breast
K-562 leukemia = tested on: K-562 leukemia
M14 melanoma = tested on: M14 melanoma
MDA-MB-435 = tested on: MDA-MB-435
SK-MEL-5 melanoma = tested on: SK-MEL-5 melanoma
MOLT-4 leukemia = tested on: MOLT-4 leukemia
EKVX NSCLC = tested on: EKVX NSCLC
SF-268 CNS = tested on: SF-268 CNS
U251 CNS = tested on: U251 CNS
CAKI-1 renal = tested on: CAKI-1 renal
UACC-62 melanoma = tested on: UACC-62 melanoma
MDA-MB-231 breast = tested on: MDA-MB-231 breast
SK-MEL-28 melanoma = tested on: SK-MEL-28 melanoma
SK-OV-3 ovarian = tested on: SK-OV-3 ovarian
SW-620 colon = tested on: SW-620 colon
RPMI-8226 leukemia = tested on: RPMI-8226 leukemia
COLO 205 colon = tested on: COLO 205 colon
HCT-116 colon = tested on: HCT-116 colon
TK-10 renal = tested on: TK-10 renal
MDA-N = tested on: MDA-N
DU-145 prostate = tested on: DU-145 prostate
UACC-257 melanoma = tested on: UACC-257 melanoma
SNB-19 CNS = tested on: SNB-19 CNS
HOP-62 NSCLC = tested on: HOP-62 NSCLC
NCI-H460 lung = tested on: NCI-H460 lung
HOP-92 NSCLC = tested on: HOP-92 NSCLC
OVCAR-4 ovarian = tested on: OVCAR-4 ovarian
HCC-2998 colon = tested on: HCC-2998 colon
SR leukemia = tested on: SR leukemia
A549 NSCLC = tested on: A549 NSCLC
HL-60(TB) leukemia = tested on: HL-60(TB) leukemia

SMILES: CC1CC/C(=C\c2ccc(F)cc2)C(=O)/C1=C/c1ccc(F)cc1 (centres undefined)
- TGI (A498 renal): 25.3 µM
- TGI (PC-3 prostate): 28.3 µM
- TGI (LOX IMVI melanoma): 7 µM
- TGI (ACHN renal): 13.6 µM
- TGI (SK-MEL-2 melanoma): 25.6 µM
- TGI (SNB-75 CNS): 11.7 µM
- TGI (SN12C renal): 9.9 µM
- TGI (NCI-H226 lung): 24.1 µM
- TGI (HS 578T breast): 31.4 µM
- TGI (HCT-15 colon): 5.39 µM
- TGI (BT-549 breast): 10.1 µM
- TGI (HT29 colon): 12.1 µM
- TGI (NCI-H23 lung): 25.5 µM
- TGI (SF-295 CNS): 7.38 µM
- TGI (RXF 393 renal): 9.98 µM
- TGI (786-0 renal): 8.42 µM
- TGI (KM12 colon): 14.5 µM
- TGI (MALME-3M melanoma): 32.8 µM
- TGI (NCI/ADR-RES ovarian): 5.75 µM
- TGI (T-47D breast): 21 µM
- TGI (OVCAR-5 ovarian): 25.4 µM
- TGI (OVCAR-3 ovarian): 28.1 µM
- TGI (SF-539 CNS): 9.15 µM
- TGI (IGROV1 ovarian): 11.1 µM
- TGI (OVCAR-8 ovarian): 9.14 µM
- TGI (UO-31 renal): 23.6 µM
- TGI (CCRF-CEM leukemia): 14.5 µM
- TGI (MCF7 breast): 16.6 µM
- TGI (K-562 leukemia): > 100 µM
- TGI (M14 melanoma): 39.4 µM
- TGI (MDA-MB-435): 28.4 µM
- TGI (SK-MEL-5 melanoma): 24.1 µM
- TGI (MOLT-4 leukemia): 8.81 µM
- TGI (EKVX NSCLC): 17.9 µM
- TGI (SF-268 CNS): 14.6 µM
- TGI (U251 CNS): 22.7 µM
- TGI (CAKI-1 renal): 12.1 µM
- TGI (UACC-62 melanoma): 24.7 µM
- TGI (MDA-MB-231 breast): 6.56 µM
- TGI (SK-MEL-28 melanoma): 37 µM
- TGI (SK-OV-3 ovarian): 36.7 µM
- TGI (SW-620 colon): 87.6 µM
- TGI (RPMI-8226 leukemia): 5.52 µM
- TGI (COLO 205 colon): 18.5 µM
- TGI (HCT-116 colon): 5.4 µM
- TGI (TK-10 renal): 8.64 µM
- TGI (MDA-N): 13.5 µM
- TGI (DU-145 prostate): 17.1 µM
- TGI (UACC-257 melanoma): 29.9 µM
- TGI (SNB-19 CNS): 35.5 µM

SMILES: OCCN(/N=C\c1ccc2ccccc2c1)C1=NCCN1
- TGI (PC-3 prostate): > 100 µM
- TGI (LOX IMVI melanoma): 30.6 µM
- TGI (ACHN renal): > 100 µM
- TGI (HOP-62 NSCLC): > 100 µM
- TGI (SK-MEL-2 melanoma): 42.6 µM
- TGI (SNB-75 CNS): > 100 µM
- TGI (SN12C renal): > 100 µM
- TGI (NCI-H226 lung): 36.1 µM
- TGI (HS 578T breast): > 100 µM
- TGI (HCT-15 colon): > 100 µM
- TGI (NCI-H460 lung): > 100 µM
- TGI (BT-549 breast): > 100 µM
- TGI (HT29 colon): 89 µM
- TGI (NCI-H23 lung): > 100 µM
- TGI (SF-295 CNS): > 100 µM
- TGI (RXF 393 renal): 36.1 µM
- TGI (HOP-92 NSCLC): 53.1 µM
- TGI (786-0 renal): 64.4 µM
- TGI (OVCAR-4 ovarian): > 100 µM
- TGI (KM12 colon): > 100 µM
- TGI (MALME-3M melanoma): 29.6 µM
- TGI (T-47D breast): > 100 µM
- TGI (OVCAR-5 ovarian): 72.2 µM
- TGI (OVCAR-3 ovarian): > 100 µM
- TGI (SF-539 CNS): 43.6 µM
- TGI (IGROV1 ovarian): > 100 µM
- TGI (OVCAR-8 ovarian): > 100 µM
- TGI (UO-31 renal): > 100 µM
- TGI (CCRF-CEM leukemia): 71.4 µM
- TGI (MCF7 breast): > 100 µM
- TGI (K-562 leukemia): 30.4 µM
- TGI (M14 melanoma): 35 µM
- TGI (MDA-MB-435): 32.7 µM
- TGI (SK-MEL-5 melanoma): 33.1 µM
- TGI (MOLT-4 leukemia): 44.5 µM
- TGI (EKVX NSCLC): > 100 µM
- TGI (SF-268 CNS): > 100 µM
- TGI (U251 CNS): 73.8 µM
- TGI (HCC-2998 colon): 32.6 µM
- TGI (UACC-62 melanoma): 48.6 µM
- TGI (SR leukemia): 55.9 µM
- TGI (MDA-MB-231 breast): 33.4 µM
- TGI (SK-MEL-28 melanoma): 35.3 µM
- TGI (SK-OV-3 ovarian): > 100 µM
- TGI (SW-620 colon): 55.6 µM
- TGI (A549 NSCLC): > 100 µM
- TGI (RPMI-8226 leukemia): 60.8 µM
- TGI (COLO 205 colon): 34.8 µM
- TGI (HL-60(TB) leukemia): 43.6 µM
- TGI (HCT-116 colon): 79.9 µM
- TGI (TK-10 renal): > 100 µM
- TGI (MDA-N): 32.4 µM
- TGI (DU-145 prostate): > 100 µM
- TGI (SNB-19 CNS): > 100 µM
